Some test systems named below: ACHN renal; HL-60(TB) leukemia; HT29 colon; MDA-MB-231 breast; RXF 393 renal; SF-295 CNS; SK-MEL-2 melanoma; SK-MEL-28 melanoma; SNB-75 CNS; UACC-62 melanoma.
Assay in all cases: NCI tumour cell line growth inhibition, 48 h

Where “and” joins values, the source holds several entries; their conditions need not be identical. Identical values can stand only once.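 1) Cells in 96-well plates. 2) Compound, 48 h, 5 concentrations. 3) Linear interpolation between surrounding doses. 4) Unreached endpoint = highest concentration. The concentration for 50% growth inhibition is given as GI50. TGI: total growth inhibition.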

For the compound `Cn1c2ccccc2c2nnc(NNCc3ccccn3)nc21`, the GI50 with ACHN renal is 0.305 µM; with HL-60(TB) leukemia, 0.318 µM; in the assay with HT29 colon it was 0.526 µM; in the assay with MDA-MB-231 breast, 1.03 µM; in the assay on RXF 393 renal, 0.407 µM; in the assay on SF-295 CNS it was 0.397 µM. For the same compound, the GI50 with SK-MEL-2 melanoma is 5.17 µM; with SK-MEL-28 melanoma it was 0.675 µM; in the assay on SNB-75 CNS, 1.16 µM; in the assay with UACC-62 melanoma, 0.268 µM. Besides, the TGI in the assay on ACHN renal came out at 2.37 µM; in the assay on HL-60(TB) leukemia, 3.13 µM; with HT29 colon, 22.9 µM; with MDA-MB-231 breast, 18 µM; in the assay with RXF 393 renal, 3.36 µM; in the assay on SF-295 CNS, 12.4 µM. Further, the TGI worked out at 33 µM in the assay on SK-MEL-2 melanoma, 11.2 µM with SK-MEL-28 melanoma, 14.1 µM with SNB-75 CNS and 0.98 µM in the assay on UACC-62 melanoma.

Take `COC(=O)/C(=C\c1c(-c2ccccc2)[nH]c2ccccc12)S(C)(=O)=O`: the GI50 in the assay with ACHN renal was 9.18 µM; in the assay on HL-60(TB) leukemia, 3.38 µM; with HT29 colon it was 3.58 µM; in the assay with MDA-MB-231 breast it was 2.39 µM; with RXF 393 renal, 7.23 µM; in the assay with SF-295 CNS, 3.13 µM. Also, the GI50 with SK-MEL-2 melanoma was 11.8 µM; with SK-MEL-28 melanoma, 6.04 µM; in the assay with SNB-75 CNS, 2.26 µM; with UACC-62 melanoma, 3.34 µM. Moreover, the TGI was 23.8 µM with ACHN renal; 15.1 µM with HL-60(TB) leukemia; 46.1 µM in the assay on HT29 colon; 17.7 µM with MDA-MB-231 breast; 68.2 µM in the assay with RXF 393 renal; 19.9 µM in the assay on SF-295 CNS. For the same compound, the TGI in the assay on SK-MEL-2 melanoma worked out at 28.4 µM; in the assay with SK-MEL-28 melanoma, 21.9 µM; in the assay on SNB-75 CNS, 9.61 µM; with UACC-62 melanoma, 17 µM.

Regarding `Clc1ccc(N2CCC(N3CCCC3)CC2)cc1-c1nc2ccccc2[nH]1`, the GI50 with ACHN renal is 26.7 µM; in the assay with HL-60(TB) leukemia, 23.5 µM; in the assay with HT29 colon, 15.1 µM; with MDA-MB-231 breast, 17.1 µM; in the assay with RXF 393 renal it was 12.9 µM; in the assay with SF-295 CNS, 17.4 µM. For the same compound, the GI50 was 19.3 µM in the assay with SK-MEL-2 melanoma, 16.5 µM with SK-MEL-28 melanoma, 15.5 µM in the assay on SNB-75 CNS and 16.2 µM in the assay with UACC-62 melanoma. The TGI in the assay on ACHN renal stood at 67.4 µM; with HL-60(TB) leukemia, 50.1 µM; in the assay with HT29 colon it was 35.8 µM; in the assay on MDA-MB-231 breast, 32.5 µM; with RXF 393 renal, 26.8 µM; in the assay on SF-295 CNS, 36.2 µM. The TGI with SK-MEL-2 melanoma stood at 36.6 µM; in the assay on SK-MEL-28 melanoma it was 31.2 µM; with SNB-75 CNS, 39 µM; in the assay on UACC-62 melanoma it was 32.1 µM.

In the case of `CCN(CC)CCCNc1[nH]ncc2c(C)c3nc4ccccc4c3cc12`, the TGI in the assay with ACHN renal was 11.6 µM and 9.15 µM; in the assay on HL-60(TB) leukemia, 1.89 µM; in the assay on HT29 colon, 1.71 µM and 2.83 µM; with MDA-MB-231 breast, 2.65 µM and 2.51 µM; in the assay with RXF 393 renal, 2.25 µM and 5.78 µM; with SF-295 CNS, 5.27 µM and 11.8 µM. The TGI in the assay with SK-MEL-2 melanoma was 3.11 µM and 7.17 µM; in the assay with SK-MEL-28 melanoma, 13.9 µM and 4.06 µM; with SNB-75 CNS, 1.99 µM and 5.3 µM; with UACC-62 melanoma, 1.96 µM and 2.08 µM. The GI50 is 0.362 µM in the assay with HT29 colon; 0.709 µM in the assay with MDA-MB-231 breast; 0.878 µM in the assay with RXF 393 renal; 1.3 µM in the assay with SF-295 CNS; 1.59 µM with SK-MEL-2 melanoma; 2.83 µM with SK-MEL-28 melanoma. Moreover, in the assay with SNB-75 CNS, the GI50 is 0.64 µM.

For `CN(C)c1ccc(/C=N/NC(=O)c2cccc3ccccc23)c(Cl)c1`, the GI50 with ACHN renal is 5.65 µM; with HL-60(TB) leukemia, 0.46 µM; with HT29 colon it was 0.503 µM; in the assay with MDA-MB-231 breast, 11.5 µM; in the assay with RXF 393 renal, 1.31 µM; in the assay on SF-295 CNS, 0.588 µM. Moreover, the GI50 in the assay on SK-MEL-2 melanoma was 0.815 µM; in the assay with SK-MEL-28 melanoma it was 3.5 µM; in the assay with SNB-75 CNS, 1.57 µM; in the assay with UACC-62 melanoma, 0.978 µM. Further, the TGI was greater than 100 µM with ACHN renal; 3.64 µM in the assay on HL-60(TB) leukemia; 15.8 µM in the assay on HT29 colon; greater than 100 µM in the assay on MDA-MB-231 breast; 10.8 µM in the assay with RXF 393 renal; 9.96 µM with SF-295 CNS. Moreover, the TGI was 16.5 µM in the assay with SK-MEL-2 melanoma, greater than 100 µM in the assay with SK-MEL-28 melanoma, 16.3 µM with SNB-75 CNS and greater than 100 µM in the assay on UACC-62 melanoma.

For the compound `CCN1C(=O)N(CC)C2C1NN=c1s/c(=C\c3cccc([N+](=O)[O-])c3)c(=O)n12` (stereo not given), the GI50 in the assay on ACHN renal was 0.0662 µM; with HL-60(TB) leukemia, 0.0496 µM; with HT29 colon, 0.0387 µM; with MDA-MB-231 breast, 0.231 µM; in the assay with RXF 393 renal, 0.0708 µM; in the assay with SF-295 CNS, 0.0423 µM. The GI50 with SK-MEL-2 melanoma was 0.453 µM; with SNB-75 CNS, 0.0378 µM; in the assay on UACC-62 melanoma, 0.0539 µM. The TGI in the assay with ACHN renal was greater than 100 µM; in the assay on HL-60(TB) leukemia, 0.21 µM; with HT29 colon, greater than 100 µM; with RXF 393 renal, greater than 100 µM; in the assay with SF-295 CNS, greater than 100 µM; in the assay with SK-MEL-2 melanoma, greater than 100 µM. Besides, the TGI with SK-MEL-28 melanoma, in the assay on SNB-75 CNS and in the assay on UACC-62 melanoma was greater than 100 µM in each case.

On to `Cn1c(C(C)(C)OC(=O)Oc2ccccc2)cnc1[N+](=O)[O-]`, for which the TGI with ACHN renal, in the assay on HL-60(TB) leukemia, in the assay on HT29 colon, in the assay on MDA-MB-231 breast, in the assay with RXF 393 renal and with SF-295 CNS was greater than 100 µM throughout. Also, the TGI with SK-MEL-2 melanoma, with SK-MEL-28 melanoma, in the assay with SNB-75 CNS and with UACC-62 melanoma was greater than 100 µM each time.

Turning to `CC12CCC(O)CC1=CCC1C2CCC2(C)C(c3cccnc3)=CCC12` (stereo not given), the GI50 in the assay with ACHN renal was greater than 100 µM; in the assay on HL-60(TB) leukemia, greater than 100 µM; with HT29 colon it was 82.2 µM; in the assay on MDA-MB-231 breast it was greater than 100 µM; in the assay with RXF 393 renal, 40.2 µM; in the assay with SF-295 CNS, 56 µM. The GI50 with SK-MEL-2 melanoma is greater than 100 µM; with SK-MEL-28 melanoma it was greater than 100 µM; in the assay with SNB-75 CNS it was 48.5 µM; in the assay on UACC-62 melanoma it was greater than 100 µM. Further, the TGI in the assay on ACHN renal, with HL-60(TB) leukemia, with HT29 colon, with MDA-MB-231 breast, in the assay with RXF 393 renal and with SF-295 CNS was greater than 100 µM in each case. Moreover, the TGI in the assay on SK-MEL-2 melanoma, in the assay on SK-MEL-28 melanoma, in the assay on SNB-75 CNS and in the assay on UACC-62 melanoma was greater than 100 µM throughout.

Consider `CC/C=C\C[C@H](O)C/C=C1/C(=O)C=C[C@@H]1C/C=C\CCCC(=O)NC`, for which the GI50 in the assay on ACHN renal was 1.56 µM; in the assay with HL-60(TB) leukemia, 1.7 µM; in the assay on HT29 colon, 1.52 µM; in the assay with MDA-MB-231 breast, 4.24 µM; in the assay on RXF 393 renal it was 1.67 µM; in the assay on SF-295 CNS it was 2.44 µM. The GI50 in the assay on SK-MEL-2 melanoma is 2.24 µM; in the assay with SK-MEL-28 melanoma it was 1.69 µM; in the assay on SNB-75 CNS it was 10.8 µM; in the assay with UACC-62 melanoma, 1.37 µM. For the same compound, the TGI in the assay on ACHN renal was determined as 3.21 µM; with HL-60(TB) leukemia, 7.24 µM; in the assay on HT29 colon, 3.25 µM; with MDA-MB-231 breast, 14.1 µM; in the assay with RXF 393 renal, 3.17 µM; in the assay with SF-295 CNS it was 6.08 µM. Further, the TGI with SK-MEL-2 melanoma came out at 6.35 µM; in the assay with SK-MEL-28 melanoma, 3.6 µM; in the assay on SNB-75 CNS it was 22.7 µM; in the assay on UACC-62 melanoma, 3.5 µM.

With `COc1ccc(-c2nc(-c3nc4ccc(C(F)(F)F)cc4[nH]3)c3ccccn23)cc1`, the GI50 was 63.5 µM in the assay with ACHN renal; greater than 100 µM with HL-60(TB) leukemia; 58.2 µM in the assay on HT29 colon; 50.6 µM in the assay with MDA-MB-231 breast; 30.5 µM with RXF 393 renal; greater than 100 µM in the assay with SF-295 CNS. Moreover, the GI50 in the assay on SK-MEL-2 melanoma is greater than 100 µM; in the assay with SK-MEL-28 melanoma it was greater than 100 µM; with SNB-75 CNS, 48.1 µM; in the assay on UACC-62 melanoma, 51.1 µM. Moreover, the TGI in the assay with ACHN renal, in the assay with HL-60(TB) leukemia, in the assay on HT29 colon, in the assay on MDA-MB-231 breast, with RXF 393 renal and with SF-295 CNS was greater than 100 µM each time. Besides, the TGI in the assay on SK-MEL-2 melanoma, with SK-MEL-28 melanoma, in the assay with SNB-75 CNS and in the assay on UACC-62 melanoma was greater than 100 µM each time.

Take `O=C(c1ccccc1O)c1[nH]c(Cl)c(Cl)c1-n1c(C(=O)c2ccccc2O)cc(Cl)c1Cl`: the GI50 with ACHN renal is 1.54 µM and 0.591 µM; with HL-60(TB) leukemia, 1.19 µM and 0.432 µM; in the assay on HT29 colon, 2 µM; in the assay on MDA-MB-231 breast, 1.07 µM and 0.354 µM; in the assay with RXF 393 renal, 1.09 µM and 0.754 µM; with SF-295 CNS it was 1.05 µM and 0.792 µM. Moreover, the GI50 in the assay with SK-MEL-2 melanoma was 0.335 µM and 1.13 µM; with SK-MEL-28 melanoma, 0.844 µM and 0.529 µM; with SNB-75 CNS, 1.8 µM and 1.58 µM; in the assay with UACC-62 melanoma, 0.495 µM and 0.361 µM. The TGI in the assay on ACHN renal is 9.41 µM and 9.11 µM; with HL-60(TB) leukemia it was 5.48 µM and 3.58 µM; in the assay on HT29 colon, 12.8 µM; in the assay on MDA-MB-231 breast it was 5.87 µM and 2.61 µM; in the assay with RXF 393 renal, 9.12 µM and 6.72 µM; in the assay on SF-295 CNS it was 4.16 µM and 3.38 µM. The TGI with SK-MEL-2 melanoma was 1.41 µM and 5.68 µM; with SK-MEL-28 melanoma, 12.3 µM and 11.3 µM; in the assay on SNB-75 CNS, 10.3 µM and 8.76 µM; with UACC-62 melanoma it was 3.34 µM and 2.09 µM.
